# Several values for one entry are separate records, joined by “and”; a condition that tells them apart may be missing. Identical values can stand only once.
# How the values were obtained:
# [1] = tested on: H23, H460, and H727; assay: carboplatin-DNA monoadducts by AMS, average of sensitive NSCLC lines; assay type: cell-based, human; conditions: three most sensitive cell lines
# Experimental: NSCLC cell lines were cultured to >90% confluence, dosed with [^14C]carboplatin, and subjected to DNA isolation and AMS analysis. 60 mm dishes were seeded at a density of 1×10^6 cells/dish and allowed to attach overnight in a 37° C. humidified atmosphere containing 5% CO2. At hour 0, cells were dosed with 1 μM (relevant microdose concentration) or 100 μM carboplatin (therapeutically relevant concentration), each comprising 0.3 μM [^14C]carboplatin (50,000 dpm/ml). Cells were incubated with [^14C]carboplatin for 4 h before washing and cultured with carboplatin-free medium to mimic the in vivo carboplatin half-life (1.3-6 hours) in patients. DNA was harvested from the cell lines at hours 0, 2, 4, 8 and 24 hours after initial dosing. Ten micrograms of DNA per sample was converted to graphite and measured by AMS for ^14C/total C quantification. Triplicate sets of AMS experiments were performed for each cell line and time point. The 14C/total C ratio was converted to 14C atoms per DNA base-pair according to the algorithm described herein to provide values of carboplatin-DNA monoadducts per 10^8 nucleotides. The data was plotted as carboplatin-DNA monoadducts per 10^8 nucleotide (nt) vs time (FIGS. 8A and 8B). There was a time-dependent increase in the carboplatin-DNA monoadduct concentration during the first 4 hours of incubation with therapeutic or microdosing carboplatin (FIGS. 8A and 8B). […]
# [2] = tested on: HT1197; assay: MTT assay IC50, bladder cancer cell line; assay type: cell-based
# Text: (§1) If these diadducts are the predominant DNA lesion responsible for cell death, then the IC50 of the two drugs should be linearly related. Thus, we measured the IC50 of the six NSCLC cell lines from Example 2 to both cisplatin and carboplatin to determine if the sensitivity of these six NSCLC cell lines to the two drugs are correlated. We observed a statistically significant linear correlation of the cytotoxicity of these two drugs in the 6 cell lines used in this study (R^2=0.72, p=0.033, FIG. 9A) and also to six additional ATCC bladder cancer cell lines. (R^2=0.72, p=0.033), FIG. 9B).
# [3] = tested on: J82; assay: MTT assay IC50, bladder cancer cell line; assay type: cell-based
# Text: as §1
# [4] = tested on: RT4; assay: MTT assay IC50, bladder cancer cell line; assay type: cell-based
# Text: as §1
# [5] = tested on: T24; assay: MTT assay IC50, bladder cancer cell line; assay type: cell-based
# Text: as §1
# [6] = tested on: TCCSUP; assay: MTT assay IC50, bladder cancer cell line; assay type: cell-based
# Text: as §1
# [7] = tested on: PBMC; assay: microdose-induced carboplatin-DNA monoadducts in patients; assay type: in vivo, human; conditions: for 4 h adducts PBMC / 24 h adducts PBMC: microdose; for lowest DNA monoadduct level observed: first nineteen patients, microdose 1% of therapeutic dose
# Experimental: Based upon the previous mouse studies that identified a minimal microdose for accurate AMS analysis of carboplatin monoadducts (1% of therapeutic carboplatin containing 50,000 DPM/gm of mouse body weight), the first in-human evaluation of microdose [^14C]carboplatin was conducted at this same equivalent formulation. The mouse radioactive dose (50,000 DPM/gm), adjusted for body surface area differences between mouse and humans, is equivalent to a dose of 1.0×10^7 DPM/kg of human body weight. The carboplatin dose for human chemotherapy is personalized to a patient's size and kidney function and is calculated using the Calvert formula with an AUC of 6 (Calvert, A. H., et al. “Carboplatin dosage: prospective evaluation of a simple formula based on renal function.” Journal of Clinical Oncology 7.11 (1989): 1748-1756). […] After blood collection, the BD Vacutainer CPT™ tubes were gently inverted several times to ensure mixing with heparin anticoagulant. The tubes were immediately placed on ice or stored at 4° C. and_then processed within 2 hours of collection to separate plasma and PBMC. For processing, the blood filled BD Vacutainer CPT™ tubes were centrifuged at room temperature in a horizontal rotor for 25 minutes at 1600×g. The top plasma layer was transferred to separate tubes and stored at or below −70° C. After most of the plasma was removed from the CPT tube, PBMC were transferred to another tube and washed three times with ice-cold phosphate-buffered solution (PBS). After pelleting the cells and removing the supernatant, the PBMC's were stored frozen at −80° C. until being processed to isolate DNA for determination of the carboplatin-DNA monoadduct frequency. Tumor samples were collected by biopsy or resection approximately 24 hours after administration of the [^14C]carboplatin microdose. These tumor specimens were placed in ice immediately after being obtained, washed three times with ice-cold PBS, and stored at or below −20° C. within 2 hours of collection. These frozen tumor samples were then processed at a later time to isolate DNA for determination of the carboplatin-DNA monoadduct frequency. To isolate DNA, tumor tissue was placed on ice in a sterile petri dish and minced with a sterile scalpel for approximately 30-90 sec per sample. Approximately 20-100 mg of tissue was then processed using the modified Wizard DNA isolation protocol as described previously.
# Two lung and three bladder cancer patients were monitored post carboplatin therapeutic treatment to determine therapeutic outcome. Each patient was given a microdose of [^14C]carboplatin by IV injection. The microdose was 1% of therapeutic based upon Calvert calculation and formulated with [^14C]carboplatin at 1.0×10^7 DPM/kg of body weight. At time points of 2, 4, 8 and 24 hours, blood samples were taken from which PBMCs were isolated determination of carboplatin-DNA monoadduct frequency, and expressed as carboplatin-DNA monoadducts per 10^8 nucleotides (FIG. 13).
# As we have shown in cell culture and mouse tumor xenograph experiments, the carboplatin-DNA monoadduct frequency is proportional to the dose and time integrated exposure to carboplatin. In this example we establish the useful range of carboplatin-DNA monoadduct frequencies in cancer patients receiving 1% of their therapeutic dose of carboplatin at a fixed time after microdose exposure. […] DNA from PBMC and tumor tissue was extracted and analyzed by AMS for carboplatin-DNA monoadduct frequency. […] Tumor carboplatin-DNA monoadduct frequencies ranged from 0.3 and 42.5 adducts per 10^8 nucleotides.
# [8] = Bladder cancer, individual patients
compound,measurement,setting,value
N.N.O=C([O-])C1(C(=O)[O-])CCC1.[Pt+2] [carboplatin],average area under curve (AUC) of carboplatin-DNA monoadducts,[1]; microdosing,94.61±33.99 hr-monoadducts per 10^8 nt
same,average area under curve (AUC) of carboplatin-DNA monoadducts,[1]; therapeutic dosing,9617.8±3172.7 hr-monoadducts per 10^8 nt
same,IC50,[2],84.5 ± 24.6 µM
same,IC50,[3],168 ± 19.9 µM
same,IC50,[4],56.9 ± 11.2 µM
same,IC50,[5],42.5 ± 6.99 µM
same,IC50,[6],91.5 ± 6.81 µM
same,4 h adducts PBMC,[7]; [8],1.113 per 10^8 nt and 0.265 per 10^8 nt and 0.545 per 10^8 nt and 0.184 per 10^8 nt and 0.193 per 10^8 nt and 1.004 per 10^8 nt and 0.600 per 10^8 nt and 1.399 per 10^8 nt and 0.599 per 10^8 nt and 0.239 per 10^8 nt and 0.421 per 10^8 nt
same,24 h adducts PBMC,[7]; [8],0.443 per 10^8 nt and 0.081 per 10^8 nt and 0.930 per 10^8 nt and 0.154 per 10^8 nt and 0.283 per 10^8 nt and 0.968 per 10^8 nt and 0.499 per 10^8 nt and 0.485 per 10^8 nt and 0.329 per 10^8 nt and 0.978 per 10^8 nt
same,4 h adducts PBMC,[7]; Hodgkin patient,0.861 per 10^8 nt
same,24 h adducts PBMC,[7]; Hodgkin patient,0.472 per 10^8 nt
same,4 h adducts PBMC,"[7]; NSCLC, individual patients",0.447 per 10^8 nt and 0.662 per 10^8 nt and 0.386 per 10^8 nt and 0.587 per 10^8 nt and 0.234 per 10^8 nt and 2.214 per 10^8 nt
same,24 h adducts PBMC,"[7]; NSCLC, individual patients",0.837 per 10^8 nt and 1.3 per 10^8 nt and 0.454 per 10^8 nt and 0.942 per 10^8 nt and 0.342 per 10^8 nt and 0.232 per 10^8 nt
same,lowest DNA monoadduct level observed,[7],~3.2 monoadducts per cell
same,lowest DNA monoadduct level observed,[7]; 1.0×10^7 DPM/kg,0.05 adducts per 10^8 nucleotides

# — patent US20200010910A1, “Cytotoxic Chemotherapy-Based Predictive Assays for Acute Myeloid Leukemia” (The Regents of The University of California, priority 2017, published 2020)
